Twelve compounds from ChEMBL document CHEMBL1201862, “PubChem BioAssay data set” (2004) can be followed below.

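96-well plates; 48 h exposure; 5 concentrations. Endpoints by linear interpolation between flanking doses. Not reached: highest tested concentration assigned. GI50 is the concentration that inhibits growth by half.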 Calls of active or inactive are those of the source. Cut-off read from the data, not from the text of the source: active = GI50 up to about 1.1 µM and inactive = higher. Bounds are passed on as bounds.

Some test systems named below: 786-0; EKVX; HCC 2998; HOP-62; IGROV-1; M14; NCI-H460; OVCAR-3; OVCAR-4; OVCAR-5; RPMI-8226; SF-268; SF-539; SNB-19; SNB-75; UO-31.
What all share (assay): growth of human tumour cells (NCI), 48 h

`Cc1cc(C)nc(NS(=O)(=O)c2ccc(Nc3c4ccccc4nc4c(C(=O)Nc5ccc(S(=O)(=O)Nc6cc(C)on6)cc5)cccc34)cc2)n1`: the GI50 is 18.5 µM (inactive) in the assay with 786-0; 26.2 µM (inactive) in the assay with EKVX; 16.8 µM (inactive) in the assay with HCC 2998; 21.2 µM (inactive) in the assay with HOP-62; 30.4 µM (inactive) in the assay on IGROV-1; 20.8 µM (inactive) in the assay with M14. Moreover, the GI50 in the assay on NCI-H460 is 25.1 µM (inactive); in the assay on OVCAR-3 it was 17.7 µM (inactive); in the assay on OVCAR-4, 22.6 µM (inactive); with OVCAR-5, 24.3 µM (inactive); in the assay with RPMI-8226 it was 22 µM (inactive); in the assay on SF-268, 24.2 µM (inactive). Further, the GI50 was 16 µM (inactive) in the assay with SF-539, 24.2 µM (inactive) in the assay on SNB-19, 32.3 µM (inactive) with SNB-75 and 26.4 µM (inactive) with UO-31.
For `ClC1CCC2OOC1O2` (stereo unspecified), the GI50 in the assay on 786-0, in the assay on EKVX, in the assay with HCC 2998, in the assay on HOP-62, in the assay on IGROV-1 and with M14 was > 100 µM (inactive) throughout. For the same compound, the GI50 in the assay with NCI-H460, with OVCAR-3, with OVCAR-4, in the assay on OVCAR-5, with RPMI-8226 and in the assay on SF-268 was > 100 µM (inactive) throughout. Also, the GI50 in the assay with SF-539 was > 100 µM (inactive); with SNB-19, > 100 µM (inactive); in the assay with SNB-75, 82.2 µM (inactive); with UO-31, > 100 µM (inactive).
`N#CC1=C(N)n2c(s/c(=C\c3ccc(Cl)cc3)c2=O)=C(c2nc3ccccc3[nH]2)C1c1ccc(Cl)cc1` (stereo unspecified): the GI50 is 2.23 µM (inactive) in the assay with 786-0; 1.88 µM (inactive) in the assay on EKVX; 0.411 µM (active) in the assay with HCC 2998; 2.23 µM (inactive) in the assay with HOP-62; 2.28 µM (inactive) in the assay on IGROV-1; 3.62 µM (inactive) in the assay with M14. Moreover, the GI50 in the assay on NCI-H460 was 1.85 µM (inactive); in the assay on OVCAR-3 it was 1.8 µM (inactive); in the assay on OVCAR-4 it was 2.01 µM (inactive); in the assay on OVCAR-5 it was 2.02 µM (inactive); in the assay on RPMI-8226, 2.23 µM (inactive); in the assay with SF-268 it was 2.64 µM (inactive). The GI50 with SF-539 is 1.98 µM (inactive); in the assay on SNB-19, 3.28 µM (inactive); with SNB-75, 2.77 µM (inactive); in the assay on UO-31, 4.45 µM (inactive).
Turning to `CCC1(O)C[C@H]2CN(CCCc3c([nH]c4ccccc34)[C@@](C(=O)OC)(c3cc4c(cc3OC)N(C)C3[C@](O)(C(=O)OC)[C@H](OC(C)=O)[C@]5(CC)C=CCN6CC[C@]43[C@H]65)C2)C1` (stereo partly specified), the GI50 is 0.589 µM (active) with 786-0; 1.63 µM (inactive) with EKVX; 1.75 µM (inactive) with HCC 2998; 0.465 µM (active) in the assay with HOP-62; 2.88 µM (inactive) in the assay on IGROV-1; 0.726 µM (active) in the assay on M14. The GI50 was 0.557 µM (active) in the assay on NCI-H460; 0.281 µM (active) with OVCAR-3; 0.353 µM (active) in the assay on OVCAR-4; 3.34 µM (inactive) with OVCAR-5; 0.908 µM (active) in the assay with RPMI-8226; 1.01 µM (active) in the assay on SF-268. Further, the GI50 is 0.991 µM (active) in the assay with SF-539, 1.77 µM (inactive) with SNB-19, 1.35 µM (inactive) with SNB-75 and 4.38 µM (inactive) in the assay on UO-31.
On to `CCOC(=O)C(=O)Nc1cc(Cl)ccc1Cl`, for which the GI50 in the assay on 786-0, in the assay with EKVX, in the assay with HCC 2998, in the assay with HOP-62, with IGROV-1 and in the assay with M14 was > 100 µM (inactive) each time. In addition, the GI50 with NCI-H460, in the assay on OVCAR-3, in the assay with OVCAR-4, in the assay with OVCAR-5, in the assay with RPMI-8226 and with SF-268 was > 100 µM (inactive) each time. Besides, the GI50 in the assay on SF-539 is > 100 µM (inactive); with SNB-19, > 100 µM (inactive); in the assay with SNB-75, 34.2 µM (inactive); in the assay on UO-31, > 100 µM (inactive).
In the case of `CC(C)c1cccc(C(C)C)c1NC(=O)C(=O)C1CCC2=C(Sc3ccccc3N2)C1=O` (stereo unspecified), the GI50 in the assay on 786-0 was 65.2 µM (inactive); in the assay on EKVX it was > 100 µM (inactive); in the assay on HCC 2998, > 100 µM (inactive); in the assay with HOP-62, > 100 µM (inactive); with IGROV-1, > 100 µM (inactive); in the assay with M14 it was > 100 µM (inactive). Besides, the GI50 is > 100 µM (inactive) with NCI-H460; > 100 µM (inactive) with OVCAR-3; 95.9 µM (inactive) in the assay on OVCAR-4; 41.5 µM (inactive) with OVCAR-5; 44.4 µM (inactive) in the assay on RPMI-8226; > 100 µM (inactive) in the assay on SF-268. Besides, the GI50 is 31.3 µM (inactive) in the assay on SF-539, > 100 µM (inactive) in the assay on SNB-19, 32.3 µM (inactive) with SNB-75 and > 100 µM (inactive) with UO-31.
Regarding `CCC1CN2CCC3(c4ccccc4)CC(C(=O)OC)=CC1C23` (stereo unspecified), the GI50 with 786-0 is 17.2 µM (inactive); with EKVX, 13.5 µM (inactive); with HCC 2998 it was 16.7 µM (inactive); in the assay with HOP-62 it was 19.2 µM (inactive); with IGROV-1, 20.4 µM (inactive); in the assay on M14, 14.8 µM (inactive). The GI50 was 17.7 µM (inactive) in the assay on NCI-H460; 19.2 µM (inactive) in the assay on OVCAR-3; 14.5 µM (inactive) with OVCAR-4; 5.6 µM (inactive) in the assay on OVCAR-5; 21.3 µM (inactive) in the assay with RPMI-8226; 14.3 µM (inactive) in the assay on SF-268. The GI50 with SF-539 is 16.8 µM (inactive); in the assay with SNB-19 it was 20.4 µM (inactive); with SNB-75, 17.3 µM (inactive); with UO-31 it was 14.1 µM (inactive).
Regarding `COc1cc2c(cc1OC)C(=O)Cc1ccc3c(c1CNCC2)OCO3`, the GI50 in the assay with 786-0, in the assay with EKVX, with HCC 2998, in the assay on HOP-62, in the assay on IGROV-1 and with M14 was > 100 µM (inactive) each time. Also, the GI50 in the assay on NCI-H460, in the assay with OVCAR-3, with OVCAR-4, in the assay on OVCAR-5, in the assay with RPMI-8226 and in the assay on SF-268 was > 100 µM (inactive) throughout. The GI50 with SF-539, in the assay on SNB-19, with SNB-75 and in the assay with UO-31 was > 100 µM (inactive) each time.
Consider `COc1cccc2c1C(=O)c1c(O)c3c(c(O)c1C2=O)C[C@@](O)(C(C)=O)CC3S(=O)(=O)O` (stereo partly specified), for which the GI50 with 786-0, in the assay with EKVX, in the assay with HCC 2998, with HOP-62, in the assay on IGROV-1 and in the assay on M14 was > 100 µM (inactive) throughout. The GI50 with NCI-H460, in the assay with OVCAR-3, with OVCAR-4, in the assay with OVCAR-5, in the assay on RPMI-8226 and with SF-268 was > 100 µM (inactive) each time. Also, the GI50 in the assay on SF-539 was > 100 µM (inactive); in the assay with SNB-19 it was > 100 µM (inactive); in the assay with SNB-75, > 50.5 µM (inactive); with UO-31, > 100 µM (inactive).
As for `COc1ccccc1/N=N/c1c(-c2ccccc2)nn(C(=O)CC(=O)Nc2ccccc2Cl)c1-c1ccccc1`, the GI50 with 786-0, with EKVX, in the assay with HCC 2998, in the assay with HOP-62, with IGROV-1 and in the assay with M14 was > 100 µM (inactive) each time. Besides, the GI50 in the assay with NCI-H460 was > 100 µM (inactive); in the assay on OVCAR-3 it was > 100 µM (inactive); with OVCAR-4, > 100 µM (inactive); with OVCAR-5, > 100 µM (inactive); in the assay on RPMI-8226, 65.5 µM (inactive); in the assay on SF-268 it was > 100 µM (inactive). In addition, the GI50 with SF-539, in the assay on SNB-19, with SNB-75 and in the assay on UO-31 was > 100 µM (inactive) each time.
In the case of `CC(=O)O[C@]1(C(C)=O)CC[C@H]2[C@@H]3C[C@H](C)C4=CC(=O)C=C[C@]4(C)[C@@]3(F)[C@@H](O)C[C@@]21C` [FLUOROMETHOLONE ACETATE], the GI50 with 786-0 is > 100 µM (inactive); with EKVX, > 100 µM (inactive); in the assay on HCC 2998, > 100 µM (inactive); in the assay on HOP-62 it was > 100 µM (inactive); in the assay on IGROV-1 it was 69.5 µM (inactive); in the assay with M14 it was 48.3 µM (inactive). The GI50 is 76.9 µM (inactive) in the assay with NCI-H460; > 100 µM (inactive) with OVCAR-3; 27.4 µM (inactive) in the assay with OVCAR-4; 0.149 µM (active) with OVCAR-5; 11.9 µM (inactive) in the assay on RPMI-8226; 36.2 µM (inactive) with SF-268. For the same compound, the GI50 with SF-539 is > 100 µM (inactive); in the assay on SNB-19, > 100 µM (inactive); in the assay on SNB-75, > 100 µM (inactive); in the assay on UO-31 it was 17.1 µM (inactive).
For the compound `CCOC(=O)c1ccc(O)cc1` [ETHYLPARABEN], the GI50 with 786-0, in the assay on EKVX, in the assay on HCC 2998, with HOP-62, with IGROV-1 and in the assay on M14 was > 100 µM (inactive) throughout. Further, the GI50 in the assay with NCI-H460, with OVCAR-4, in the assay on OVCAR-5, with RPMI-8226, in the assay with SF-268 and with SF-539 was > 100 µM (inactive) throughout. The GI50 in the assay on SNB-19, with SNB-75 and with UO-31 was > 100 µM (inactive) in each case.
